Data published in patent US20230109833A1, “METABOLICALLY STABLE N-ACYLAMINOOXADIAZOLES USEFUL AS ANTIBACTERIAL AGENTS” (MICROBIOTIX, INC., priority 2017, published 2023).
In brackets after ≈: the same amount, converted by molar mass.

Tests used:
CYP2D6 = target: T1, CYP2D6 (Homo sapiens, UniProt P10635); assay: CYP450 inhibition; assay type: biochemical; conditions: 10 μM compound, Hit Profile Panel; for inhibition at 10 µM: read-out: % Inhibition, CYP450, 2D6
T1 construct: purchased BD Gentest Corp., Woburn, Mass
T1 sequence (P10635 whole entry): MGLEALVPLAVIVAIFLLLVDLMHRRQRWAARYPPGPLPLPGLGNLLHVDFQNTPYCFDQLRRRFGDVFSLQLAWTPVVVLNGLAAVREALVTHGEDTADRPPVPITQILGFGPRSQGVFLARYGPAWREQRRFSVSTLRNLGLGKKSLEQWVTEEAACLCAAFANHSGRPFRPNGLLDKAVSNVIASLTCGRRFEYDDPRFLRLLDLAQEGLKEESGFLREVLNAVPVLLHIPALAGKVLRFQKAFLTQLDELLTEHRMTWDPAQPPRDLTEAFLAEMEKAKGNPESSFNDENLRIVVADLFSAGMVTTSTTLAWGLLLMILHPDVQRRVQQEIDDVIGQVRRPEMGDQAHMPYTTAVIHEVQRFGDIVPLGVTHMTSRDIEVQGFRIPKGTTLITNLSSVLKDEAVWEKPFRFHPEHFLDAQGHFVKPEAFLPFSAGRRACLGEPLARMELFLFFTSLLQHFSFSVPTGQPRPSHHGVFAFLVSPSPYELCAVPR
Protocol: (§1) Because inhibition of cytochrome P450 (CYP450) enzymes in vitro is predictive of potential drug interactions in vivo, CYP450 inhibition was measured using commercially available Human Cytochrome P450 kits (BD Gentest Corp., Woburn, Mass.) for the major CYP450s: CYP3A4 and CYP2D6. The assays were performed according to the manufacturer's instructions.

CYP3A4 = target: T2, CYP3A4 (Homo sapiens, UniProt P08684); assay: CYP450 inhibition; assay type: biochemical; conditions: 10 μM compound, Hit Profile Panel; for inhibition at 10 µM: read-out: % Inhibition, CYP450, 3A4
T2 construct: purchased BD Gentest Corp., Woburn, Mass
T2 sequence (P08684 whole entry): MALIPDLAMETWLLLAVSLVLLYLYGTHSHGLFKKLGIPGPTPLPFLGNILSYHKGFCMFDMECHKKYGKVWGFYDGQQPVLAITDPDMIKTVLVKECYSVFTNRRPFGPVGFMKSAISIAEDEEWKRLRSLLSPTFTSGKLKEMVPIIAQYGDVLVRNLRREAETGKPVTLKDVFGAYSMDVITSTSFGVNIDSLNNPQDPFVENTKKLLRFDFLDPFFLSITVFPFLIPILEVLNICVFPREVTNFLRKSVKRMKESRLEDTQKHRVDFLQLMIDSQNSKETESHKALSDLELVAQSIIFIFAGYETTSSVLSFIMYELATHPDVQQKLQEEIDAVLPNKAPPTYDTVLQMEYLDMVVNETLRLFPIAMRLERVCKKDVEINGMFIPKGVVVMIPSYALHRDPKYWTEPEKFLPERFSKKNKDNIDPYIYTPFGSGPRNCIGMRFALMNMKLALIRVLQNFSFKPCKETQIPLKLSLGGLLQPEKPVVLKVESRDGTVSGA
Protocol: as §1

[1] = Single dose PK (IV and PO); assay type: in vivo; conditions: mice, 10 mg/kg PO
[2] = test system: MRSA strain BAA-1717 (TCH1516; USA300); assay: Murine efficacy, neutropenic thigh model; assay type: in vivo, mouse; conditions: 25 mg/kg PO once 2 h after infection; CFU 24 hrs post dosage; compared to untreated controls
Tolerability studies = assay type: in vivo; conditions: data not shown
Adenosine A2A = Adenosine A2A (Homo sapiens, UniProt P29274); assay type: binding; conditions: 10 μM compound, Hit Profile Panel
Sequence of Adenosine A2A (P29274 whole entry): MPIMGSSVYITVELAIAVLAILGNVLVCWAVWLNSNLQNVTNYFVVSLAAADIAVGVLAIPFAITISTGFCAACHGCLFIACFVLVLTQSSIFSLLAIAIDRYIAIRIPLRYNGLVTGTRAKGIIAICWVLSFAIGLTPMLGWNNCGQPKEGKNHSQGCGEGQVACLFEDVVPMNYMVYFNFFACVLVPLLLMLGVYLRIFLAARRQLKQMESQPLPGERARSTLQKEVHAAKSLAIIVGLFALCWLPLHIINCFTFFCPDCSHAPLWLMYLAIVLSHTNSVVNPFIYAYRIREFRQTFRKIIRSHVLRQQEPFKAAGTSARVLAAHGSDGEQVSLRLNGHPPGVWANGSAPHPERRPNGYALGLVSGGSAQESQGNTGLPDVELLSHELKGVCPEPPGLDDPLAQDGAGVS

Adrenergic α1B = target: T3, Adrenergic α1B (Rattus norvegicus, UniProt P15823); assay type: binding; conditions: 10 μM compound, Hit Profile Panel
T3 sequence (P15823 1-515): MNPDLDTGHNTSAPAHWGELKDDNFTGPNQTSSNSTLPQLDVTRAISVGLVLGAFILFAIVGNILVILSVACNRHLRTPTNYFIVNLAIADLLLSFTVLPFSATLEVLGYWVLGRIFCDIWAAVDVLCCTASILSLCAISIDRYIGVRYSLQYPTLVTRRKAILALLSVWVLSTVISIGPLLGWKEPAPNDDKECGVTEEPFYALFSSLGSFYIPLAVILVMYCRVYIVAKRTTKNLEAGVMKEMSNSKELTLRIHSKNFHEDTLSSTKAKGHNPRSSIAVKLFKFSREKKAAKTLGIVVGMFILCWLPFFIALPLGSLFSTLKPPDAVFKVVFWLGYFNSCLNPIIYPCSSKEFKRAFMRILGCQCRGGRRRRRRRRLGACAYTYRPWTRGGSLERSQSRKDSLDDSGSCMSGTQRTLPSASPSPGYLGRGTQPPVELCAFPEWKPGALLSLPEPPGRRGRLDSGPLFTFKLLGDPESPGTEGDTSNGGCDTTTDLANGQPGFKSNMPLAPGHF

Adrenergic β2 = Adrenergic β2 (Homo sapiens, UniProt P07550); assay type: binding; conditions: 10 μM compound, Hit Profile Panel
Sequence of Adrenergic β2 (P07550 whole entry): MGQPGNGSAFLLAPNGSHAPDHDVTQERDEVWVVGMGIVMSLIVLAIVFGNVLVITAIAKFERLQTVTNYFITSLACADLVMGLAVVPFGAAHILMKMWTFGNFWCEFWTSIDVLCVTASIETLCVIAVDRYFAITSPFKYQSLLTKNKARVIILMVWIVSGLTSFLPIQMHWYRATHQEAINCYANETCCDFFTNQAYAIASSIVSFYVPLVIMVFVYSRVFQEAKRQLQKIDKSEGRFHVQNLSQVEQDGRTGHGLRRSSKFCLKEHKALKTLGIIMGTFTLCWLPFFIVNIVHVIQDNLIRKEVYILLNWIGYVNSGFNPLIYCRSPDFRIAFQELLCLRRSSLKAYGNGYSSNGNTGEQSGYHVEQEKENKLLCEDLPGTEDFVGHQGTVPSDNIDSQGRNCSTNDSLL

Dopamine D2s = Dopamine D2s (Homo sapiens, UniProt P14416); assay type: binding; conditions: 10 μM compound, Hit Profile Panel
Sequence of Dopamine D2s (P14416 1-414 isoform P14416-2): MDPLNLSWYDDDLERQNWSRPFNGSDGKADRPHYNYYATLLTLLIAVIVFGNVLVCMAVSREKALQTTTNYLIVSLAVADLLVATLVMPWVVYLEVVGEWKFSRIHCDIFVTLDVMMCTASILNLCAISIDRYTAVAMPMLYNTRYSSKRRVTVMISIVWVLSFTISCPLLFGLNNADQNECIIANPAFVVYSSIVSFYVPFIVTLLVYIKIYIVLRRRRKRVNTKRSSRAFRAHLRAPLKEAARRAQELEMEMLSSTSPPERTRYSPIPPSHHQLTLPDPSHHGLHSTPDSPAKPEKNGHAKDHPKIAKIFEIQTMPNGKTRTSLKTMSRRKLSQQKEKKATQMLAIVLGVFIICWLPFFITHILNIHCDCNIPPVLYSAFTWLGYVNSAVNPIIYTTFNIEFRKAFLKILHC

Imidazoline I2, Central = assay type: binding; conditions: rat; 10 μM compound; Hit Profile Panel
Opiate μ(OP3, MOP) = Opiate μ(OP3, MOP) (Homo sapiens, UniProt P35372); assay type: binding; conditions: 10 μM compound, Hit Profile Panel
Sequence of Opiate μ(OP3, MOP) (P35372 whole entry): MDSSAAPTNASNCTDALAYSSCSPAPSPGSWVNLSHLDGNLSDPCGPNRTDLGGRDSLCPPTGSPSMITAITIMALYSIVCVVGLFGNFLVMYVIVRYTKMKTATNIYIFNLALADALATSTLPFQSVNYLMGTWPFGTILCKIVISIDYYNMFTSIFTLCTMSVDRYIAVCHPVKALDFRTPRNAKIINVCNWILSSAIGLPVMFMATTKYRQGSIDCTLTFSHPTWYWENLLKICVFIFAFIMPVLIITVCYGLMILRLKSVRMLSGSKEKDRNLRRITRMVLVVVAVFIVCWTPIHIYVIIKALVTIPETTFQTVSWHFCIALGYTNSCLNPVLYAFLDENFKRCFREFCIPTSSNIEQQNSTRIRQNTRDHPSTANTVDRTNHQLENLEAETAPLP

[3] = target: Seritonin (5-Hydroxytryptamine) 5-HT2B (Homo sapiens, UniProt P41595); assay type: binding; conditions: 10 μM compound, Hit Profile Panel
Sequence of Seritonin (5-Hydroxytryptamine) 5-HT2B (P41595 whole entry): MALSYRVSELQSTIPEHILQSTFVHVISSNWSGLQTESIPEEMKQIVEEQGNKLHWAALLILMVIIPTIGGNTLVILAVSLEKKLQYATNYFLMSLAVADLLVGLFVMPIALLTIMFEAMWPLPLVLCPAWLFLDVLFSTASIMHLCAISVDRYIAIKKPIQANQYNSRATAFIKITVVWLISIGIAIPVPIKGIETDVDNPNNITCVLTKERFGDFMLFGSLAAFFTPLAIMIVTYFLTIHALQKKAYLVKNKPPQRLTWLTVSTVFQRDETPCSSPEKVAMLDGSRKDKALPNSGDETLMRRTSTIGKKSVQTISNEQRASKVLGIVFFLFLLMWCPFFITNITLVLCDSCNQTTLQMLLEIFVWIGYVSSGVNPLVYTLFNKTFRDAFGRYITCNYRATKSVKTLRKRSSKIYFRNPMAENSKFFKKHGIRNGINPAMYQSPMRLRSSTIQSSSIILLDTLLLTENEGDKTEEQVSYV

Sigma σ1 = Sigma σ1 (Homo sapiens, UniProt Q99720); assay type: binding; conditions: 10 μM compound, Hit Profile Panel
Sequence of Sigma σ1 (Q99720 whole entry): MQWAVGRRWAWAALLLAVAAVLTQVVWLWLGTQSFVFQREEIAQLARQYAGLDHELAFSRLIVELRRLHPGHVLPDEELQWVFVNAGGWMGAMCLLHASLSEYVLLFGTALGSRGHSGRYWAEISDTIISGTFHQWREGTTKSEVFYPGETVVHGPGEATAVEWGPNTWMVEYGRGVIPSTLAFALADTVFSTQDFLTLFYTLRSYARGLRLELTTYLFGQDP

Sodium Channel, Site 2 = assay type: binding; conditions: rat; 10 μM compound; Hit Profile Panel
[4] = target: Transporter, Norepinephrine (NET) (Homo sapiens, UniProt P23975); assay type: binding; conditions: 10 μM compound, Hit Profile Panel
Sequence of Transporter, Norepinephrine (NET) (P23975 whole entry): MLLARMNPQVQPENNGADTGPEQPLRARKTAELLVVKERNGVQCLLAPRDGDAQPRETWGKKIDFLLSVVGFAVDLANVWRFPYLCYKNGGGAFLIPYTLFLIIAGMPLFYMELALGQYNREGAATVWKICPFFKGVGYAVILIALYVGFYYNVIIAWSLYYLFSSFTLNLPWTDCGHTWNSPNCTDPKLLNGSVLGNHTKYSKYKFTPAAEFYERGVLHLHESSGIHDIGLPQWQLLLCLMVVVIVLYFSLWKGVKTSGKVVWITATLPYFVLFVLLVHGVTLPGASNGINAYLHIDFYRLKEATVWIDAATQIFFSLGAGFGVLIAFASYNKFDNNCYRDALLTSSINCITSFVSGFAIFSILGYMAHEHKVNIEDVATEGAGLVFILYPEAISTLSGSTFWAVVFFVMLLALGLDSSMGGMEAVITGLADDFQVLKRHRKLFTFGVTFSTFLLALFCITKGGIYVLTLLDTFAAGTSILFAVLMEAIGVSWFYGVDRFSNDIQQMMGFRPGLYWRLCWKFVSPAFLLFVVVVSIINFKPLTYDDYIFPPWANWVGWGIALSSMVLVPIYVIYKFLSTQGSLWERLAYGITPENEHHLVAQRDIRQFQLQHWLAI

CYP450, 1A2 = CYP450, 1A2 (Homo sapiens, UniProt P05177); conditions: 10 µM
CYP450, 2C19 = CYP450, 2C19 (Homo sapiens, UniProt P33261); conditions: 10 µM
CYP450, 2C9 = CYP450, 2C9 (Homo sapiens, UniProt P11712); conditions: 10 µM
Potassium Channel hERG = Potassium Channel hERG (Homo sapiens, UniProt Q12809); conditions: 10 µM
N. gonorrhoeae = assay: MIC (Table 2B); assay type: cell-based; conditions: Neisseria gonorrhoeae; Table 2B, strain not given; read-out: N. gonorrhoeae MIC
CYP1A2 = CYP1A2 (Homo sapiens, UniProt P05177)
Sequence of CYP1A2 (P05177 whole entry): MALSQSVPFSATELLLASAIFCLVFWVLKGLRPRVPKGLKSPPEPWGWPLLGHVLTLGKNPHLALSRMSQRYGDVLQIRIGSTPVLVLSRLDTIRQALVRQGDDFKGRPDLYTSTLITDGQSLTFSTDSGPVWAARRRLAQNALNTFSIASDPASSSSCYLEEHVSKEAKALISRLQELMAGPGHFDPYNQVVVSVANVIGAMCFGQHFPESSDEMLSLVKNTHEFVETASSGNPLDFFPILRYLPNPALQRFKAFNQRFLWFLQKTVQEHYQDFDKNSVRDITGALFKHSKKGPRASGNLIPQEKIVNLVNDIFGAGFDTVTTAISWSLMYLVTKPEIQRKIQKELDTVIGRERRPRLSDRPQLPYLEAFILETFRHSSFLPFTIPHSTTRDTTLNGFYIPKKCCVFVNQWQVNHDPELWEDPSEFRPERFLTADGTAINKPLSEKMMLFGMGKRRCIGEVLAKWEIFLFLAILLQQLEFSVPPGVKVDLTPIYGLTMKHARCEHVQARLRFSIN

CYP2C19 = CYP2C19 (Homo sapiens, UniProt P33261)
Sequence of CYP2C19 (P33261 whole entry): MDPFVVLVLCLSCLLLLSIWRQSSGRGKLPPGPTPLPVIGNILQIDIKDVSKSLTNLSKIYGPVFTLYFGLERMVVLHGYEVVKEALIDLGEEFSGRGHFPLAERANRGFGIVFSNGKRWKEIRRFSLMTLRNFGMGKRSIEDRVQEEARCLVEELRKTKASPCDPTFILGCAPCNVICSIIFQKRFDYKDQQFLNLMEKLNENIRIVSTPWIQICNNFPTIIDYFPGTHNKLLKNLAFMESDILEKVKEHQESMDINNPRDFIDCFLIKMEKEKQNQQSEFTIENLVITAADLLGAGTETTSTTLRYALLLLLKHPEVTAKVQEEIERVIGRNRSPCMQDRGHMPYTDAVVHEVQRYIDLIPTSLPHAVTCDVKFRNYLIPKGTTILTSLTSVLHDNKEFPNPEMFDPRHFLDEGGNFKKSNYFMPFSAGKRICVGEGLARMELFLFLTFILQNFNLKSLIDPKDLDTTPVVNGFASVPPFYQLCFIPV

CYP2C9 = CYP2C9 (Homo sapiens, UniProt P11712)
hERG potassium channel = hERG potassium channel (Homo sapiens, UniProt Q12809)
36 mammalian receptors = assay type: binding; conditions: 10 μM; every receptor of the panel

Row | SMILES | % Inhibition, Imidazoline I2, Central (Imidazoline I2, Central) [%] | % Inhibition, Sodium Channel, Site 2 (Sodium Channel, Site 2) [%] | inhibition at 10 µM (CYP2D6) [%] | inhibition at 10 µM (CYP3A4) [%] | inhibition at 10 µM (Adenosine A2A) [%] | inhibition at 10 µM (Adrenergic α1B) [%] | inhibition at 10 µM (Adrenergic β2) [%] | inhibition at 10 µM (Dopamine D2s) [%] | inhibition at 10 µM (Opiate μ(OP3, MOP)) [%] | inhibition at 10 µM [3] [%] | inhibition at 10 µM (Sigma σ1) [%] | inhibition at 10 µM [4] [%] | inhibition at 10 µM (CYP1A2) [%] | inhibition at 10 µM (CYP2C19) [%] | inhibition at 10 µM (CYP2C9) [%] | inhibition at 10 µM (hERG potassium channel) [%] | further results
1 | O=C(Nc1nnc(-c2ccc(F)cc2)o1)N1CCc2ccccc2C1 [MBX-4132] | 33 | 4 | – | – | – | – | – | – | – | – | – | – | – | – | – | – | % Inhibition, CYP450, 2D6 (CYP2D6): 10%; % Inhibition, CYP450, 3A4 (CYP3A4): 7%; bioavailability, available from oral dosing [1]: > 75%; drop in CFU/g [2]: > 2 log; elevated single dose tolerability (Tolerability studies; 100 mg/kg, PO, observed 24 h): no effects distinct from vehicle controls; multidose tolerability (Tolerability studies; seven days of dosing at 25 mg/kg, SC, BID, observed 10 days): no effects distinct from vehicle controls; % Inhibition, Adenosine A2A (Adenosine A2A): 43%; % Inhibition, Adrenergic α1B (Adrenergic α1B): 21%; % Inhibition, Adrenergic β2 (Adrenergic β2): 36%; % Inhibition, Dopamine D2s (Dopamine D2s): 25%; % Inhibition, Opiate μ(OP3, MOP) (Opiate μ(OP3, MOP)): 74%; % Inhibition, Seritonin (5-Hydroxytryptamine) 5-HT2B [3]: 53%; % Inhibition, Sigma σ1 (Sigma σ1): −4%; % Inhibition, Transporter, Norepinephrine (NET) [4]: 50%; % Inhibition, CYP450, 1A2 (CYP450, 1A2): 9%; % Inhibition, CYP450, 2C19 (CYP450, 2C19): 44%; % Inhibition, CYP450, 2C9 (CYP450, 2C9): 10%; % Inhibition, Potassium Channel hERG (Potassium Channel hERG): 64%
2 | O=C(Nc1nnc(-c2ccc(F)cc2)o1)c1ccc(OC2CCCCC2)cc1 [compound 4292] | 10 | −2 | 2 | 4 | 11 | 3 | 6 | 1 | 4 | -7 | 10 | 77 | 5 | 9 | 10 | 8 | MIC (N. gonorrhoeae): 0.09 µg/mL (≈ 0.236 µM)
3 | O=C(Nc1nnc(-c2ccc(F)cc2)o1)N1CC=C(C(F)(F)F)CC1 [compound 4347] | −5 | −5 | 9 | 9 | 3 | 7 | 8 | -2 | -14 | -1 | -2 | 32 | 2 | 8 | 4 | 0 | inhibition of the 36 mammalian receptors (36 mammalian receptors): < 50%
